Measurements reported in paper PMC6021035, “Insights into biological activity of ureidoamides with primaquine and amino acid moieties” (Journal of Enzyme Inhibition and Medicinal Chemistry, 2018).
In brackets after ≈: the same amount, converted by molar mass. Marks after values point to notes of the source that are not given here.

What was measured:
[1] = test system: Aspergillus niger ATCC 16404; assay: MIC determination (broth micro-dilution); assay type: cell-based; conditions: ATCC16404
Description: (§1) Before analysis, compounds 5a–f were dissolved in 96% ethanol in a concentration of 2 mg/ml as stock solutions. Inoculums were prepared with fresh cultures of microbial strains, cultured on tryptic-soy agar or Sabouraud 2% (m/v) dextrose agar for 18 h (48–72 h for fungi) at 30 °C with physiological saline containing approximately […]. Inoculum density (0.5 McFarland units) was adjusted with a bio Mériex (France) densitometer. Minimum inhibitory concentration (MIC) was determined by the twofold micro-dilution method in Mu¨ller–Hinton broth for bacterial strains and RPMI 1640 + 2% m/v dextrose for fungi according to the EUCAST recommendations in a sterile 96-well flat-bottom plastic tissue culture plate. MIC was determined using a linear regression curve after incubation of compounds and reading the optical density at 570 nm using an iEMS microplate reader. […] All tests were performed in triplicate and expressed as the mean.

[2] = test system: Bacillus cereus ATCC 11778; assay: MIC determination (broth micro-dilution); assay type: cell-based; conditions: ATCC11778
Description: as §1

[3] = test system: Bacillus subtilis ATCC 6633; assay: MIC determination (broth micro-dilution); assay type: cell-based; conditions: ATCC6633
Description: as §1

[4] = test system: Burkholderia caepacia ATCC 25416; assay: MIC determination (broth micro-dilution); assay type: cell-based; conditions: ATCC25416
Description: as §1

[5] = test system: Candida albicans ATCC 10231; assay: MIC determination (broth micro-dilution); assay type: cell-based; conditions: ATCC10231
Description: as §1

[6] = test system: Candida albicans ATCC 90028; assay: MIC determination (broth micro-dilution); assay type: cell-based; conditions: ATCC90028
Description: as §1

Candida kefyr ATCC 2512 = assay: MIC determination (broth micro-dilution); assay type: cell-based; conditions: Kluyveromyces marxianus, ATCC2512
Description: as §1

[7] = test system: Candida krusei ATCC 14243; assay: MIC determination (broth micro-dilution); assay type: cell-based; conditions: Pichia kudriavzevii, ATCC14243
Description: as §1

[8] = test system: Candida parapsylosis ATCC 22019; assay: MIC determination (broth micro-dilution); assay type: cell-based; conditions: ATCC22019
Description: as §1

[9] = test system: Candida tropicalis ATCC 750; assay: MIC determination (broth micro-dilution); assay type: cell-based; conditions: ATCC750
Description: as §1

[10] = test system: Enterococcus faecalis ATCC 29212; assay: MIC determination (broth micro-dilution); assay type: cell-based; conditions: ATCC29212
Description: as §1

[11] = test system: Enterococcus hyrae ATCC 8043; assay: MIC determination (broth micro-dilution); assay type: cell-based; conditions: ATCC8043
Description: as §1

[12] = test system: Escherichia coli ATCC 10536; assay: MIC determination (broth micro-dilution); assay type: cell-based; conditions: ATCC10536
Description: as §1

[13] = test system: Escherichia coli ATCC 8739; assay: MIC determination (broth micro-dilution); assay type: cell-based; conditions: ATCC8739
Description: as §1

[14] = test system: Issatchenkia orientalis Kudrjanzev ATCC 6258; assay: MIC determination (broth micro-dilution); assay type: cell-based; conditions: Pichia kudriavzevii, ATCC6258
Description: as §1

[15] = test system: Kocuria rhizophila ATCC 9341; assay: MIC determination (broth micro-dilution); assay type: cell-based; conditions: ATCC9341
Description: as §1

[16] = test system: Pseudomonas aeruginosa ATCC 27853; assay: MIC determination (broth micro-dilution); assay type: cell-based; conditions: ATCC27853
Description: as §1

[17] = test system: Pseudomonas aeruginosa ATCC 9027; assay: MIC determination (broth micro-dilution); assay type: cell-based; conditions: ATCC9027
Description: as §1

[18] = test system: Staphylococcus aureus ATCC 25213; assay: MIC determination (broth micro-dilution); assay type: cell-based; conditions: ATCC25213
Description: as §1

[19] = test system: Staphylococcus aureus ATCC 25923; assay: MIC determination (broth micro-dilution); assay type: cell-based; conditions: ATCC25923
Description: as §1

[20] = test system: Staphylococcus aureus ATCC 6538; assay: MIC determination (broth micro-dilution); assay type: cell-based; conditions: ATCC6538
Description: as §1

[21] = Interaction with 1,1-diphenyl-2-picrylhydrazyl (DPPH); conditions: 100 μΜ
Description: To a solution of DPPH in absolute ethanol, an appropriate volume of the tested compound solution (0.1 mM final concentration) dissolved in DMSO was added. Absorbance was recorded at 517 nm after 20 and 60 min at room temperature (Lambda 20 double beam spectrophotometer, Perkin-Elmer, UK). Experiments were repeated at least in triplicate and the standard deviation of absorbance was less than 10% of the mean[10]. NDGA was used under the same experimental conditions as a reference compound.

[22] = molecular target: T1, soybean lipoxygenase (LOX) (Glycine max, UniProt P08170); assay: In vitro soybean lipoxygenase (LOX) inhibition; assay type: biochemical; conditions: sodium linoleate 0.1 mM, read-out: LOX inhibition (IC50 μM) ± SD
T1 construct: purchased Sigma-Aldrich
T1 sequence (P08170 1-839): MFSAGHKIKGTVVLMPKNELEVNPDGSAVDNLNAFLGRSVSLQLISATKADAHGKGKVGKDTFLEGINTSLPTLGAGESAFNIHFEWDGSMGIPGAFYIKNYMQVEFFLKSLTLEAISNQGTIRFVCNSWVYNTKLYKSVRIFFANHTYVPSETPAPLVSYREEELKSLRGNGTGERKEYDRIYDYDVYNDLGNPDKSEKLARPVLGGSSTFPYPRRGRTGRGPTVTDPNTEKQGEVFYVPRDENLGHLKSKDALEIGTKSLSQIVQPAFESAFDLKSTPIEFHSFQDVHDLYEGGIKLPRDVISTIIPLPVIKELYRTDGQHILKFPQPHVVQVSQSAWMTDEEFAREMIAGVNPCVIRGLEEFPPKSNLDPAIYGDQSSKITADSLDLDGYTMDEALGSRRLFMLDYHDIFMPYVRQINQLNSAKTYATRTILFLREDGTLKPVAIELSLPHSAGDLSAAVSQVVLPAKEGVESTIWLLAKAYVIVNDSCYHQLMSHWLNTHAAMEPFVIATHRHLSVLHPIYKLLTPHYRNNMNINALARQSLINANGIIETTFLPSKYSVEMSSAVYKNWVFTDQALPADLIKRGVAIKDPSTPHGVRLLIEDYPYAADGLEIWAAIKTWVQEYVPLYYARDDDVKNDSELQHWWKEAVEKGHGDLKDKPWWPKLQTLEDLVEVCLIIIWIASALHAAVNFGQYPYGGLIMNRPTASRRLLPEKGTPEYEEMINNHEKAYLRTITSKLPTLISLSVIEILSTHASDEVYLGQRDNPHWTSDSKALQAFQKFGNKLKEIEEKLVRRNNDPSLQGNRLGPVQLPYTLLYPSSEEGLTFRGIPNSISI
Description: In vitro LOX inhibition assay was accomplished as described previously. Test compounds (stock solutions 10 mM in DMSO) were incubated at room temperature with sodium linoleate (0.1 mM) and 0.2 ml of LOX solution (0.1 mg in 10 ml saline). Conversion of sodium linoleate to 13-hydroperoxylinoleic acid was measured at 234 nm and compared to the reference inhibitor. Several concentrations were used for IC50 determination.

MIC [1]	MIC [2]	MIC [3]	MIC [4]	MIC [5]	MIC [6]	MIC (Candida kefyr ATCC 2512)	MIC [7]	MIC [8]	MIC [9]	MIC [10]	MIC [11]	MIC [12]	MIC [13]	MIC [14]	MIC [15]	MIC [16]	MIC [17]	MIC [18]	MIC [19]	Structure (SMILES)	also measured
> 100 µg/mL	> 100 µg/mL	> 100 µg/mL	> 100 µg/mL	> 100 µg/mL	> 100 µg/mL	> 100 µg/mL	> 100 µg/mL	> 100 µg/mL	> 100 µg/mL	> 100 µg/mL	> 100 µg/mL	> 100 µg/mL	> 100 µg/mL	> 100 µg/mL	> 100 µg/mL	> 100 µg/mL	> 100 µg/mL	60 µg/mL (≈ 97.4 µM)	65 µg/mL (≈ 106 µM)	COc1cc(NC(C)CCCNC(=O)NC(C(=O)N(C)C(c2ccccc2)c2ccccc2)c2ccccc2)c2ncccc2c1 (stereo not drawn) [Compound 5b, N-(diphenylmethyl)-2-[({4-[(6-methoxyquinolin-8-yl)amino]pentyl}carbamoyl)amino]-N-methyl-2-phenylacetamide]	MIC [20]: > 100 µg/mL; DPPH-reducing ability 20 min [21]: 7^b %; DPPH-reducing ability 60 min [21]: 5^b %; IC50 [22]: 69 ± 2 µM
> 100 µg/mL	> 100 µg/mL	> 100 µg/mL	> 100 µg/mL	> 100 µg/mL	> 100 µg/mL	> 100 µg/mL	> 100 µg/mL	> 100 µg/mL	> 100 µg/mL	> 100 µg/mL	> 100 µg/mL	> 100 µg/mL	> 100 µg/mL	> 100 µg/mL	> 100 µg/mL	> 100 µg/mL	> 100 µg/mL	> 100 µg/mL	> 100 µg/mL	COc1ccc(C(=NNC(=O)C(NC(=O)NCCCC(C)Nc2cc(OC)cc3cccnc23)c2ccc(Cl)cc2)c2ccccc2)cc1 (stereo not drawn) [Compound 5f, 3-[(4-chlorophenyl)({N'-[(4-methoxyphenyl)(phenyl)methylidene]hydrazinecarbonyl})methyl]-1-{4-[(6-methoxyquinolin-8-yl)amino]pentyl}urea]	MIC [20]: > 100 µg/mL; DPPH-reducing ability 20 min [21]: 2^b %; DPPH-reducing ability 60 min [21]: 2^b %; IC50 [22]: 67.5 ± 1.1 µM

Structure (SMILES)	MIC [1]	MIC [2]	MIC [3]	MIC [4]	MIC [5]	MIC [6]	MIC (Candida kefyr ATCC 2512)	MIC [7]	MIC [8]	MIC [9]	MIC [10]	MIC [11]	MIC [12]	MIC [13]	MIC [14]	MIC [15]	MIC [16]	MIC [17]	MIC [18]	MIC [19]	also measured
COc1cc(NC(C)CCCN)c2ncccc2c1 (stereo not drawn) [PQ, 8-[(4-amino-1-methylbutyl)amino]-6-methoxyquinoline, reference compound]	> 100 µg/mL	70 µg/mL (≈ 270 µM)	80 µg/mL (≈ 308 µM)	80 µg/mL (≈ 308 µM)	90 µg/mL (≈ 347 µM)	> 100 µg/mL	40 µg/mL (≈ 154 µM)	> 100 µg/mL	25 µg/mL (≈ 96.4 µM)	> 100 µg/mL	> 100 µg/mL	> 100 µg/mL	65 µg/mL (≈ 251 µM)	40 µg/mL (≈ 154 µM)	> 100 µg/mL	50 µg/mL (≈ 193 µM)	65 µg/mL (≈ 251 µM)	70 µg/mL (≈ 270 µM)	70 µg/mL (≈ 270 µM)	45 µg/mL (≈ 174 µM)	MIC [20]: 50 µg/mL (≈ 193 µM)
